According to ChEMBL document CHEMBL1125732, “Synthesis and benzodiazepine binding activity of a series of novel [1,2,4]triazolo[1,5-c]quinazolin-5(6H)-ones” (J Med Chem, 1991):

Legend:
[1] = target: GABA-A receptor; anion channel; test: Binding affinity at Benzodiazepine receptor of rat forebrain by [3H]- flunitrazepam displacement.
[2] = target: GABA-A receptor; anion channel; test: Displacement of [3H]- Diazepam from GABA-A Benzodiazepine receptor of rat forebrain
[3] = target: T1, GABA-A receptor; anion channel (Mus musculus) (UniProt Q8BHJ7+P26048+Q8QZW7+P50571+Q9R0Y8+P22723+A2AMW3+P62812+Q9JLF1+P26049+P22933+Q9D6F4+P63080+P27681+P16305); test: In vivo percentage inhibition of flunitrazepam binding to Benzodiazepine receptor in mouse fore brain at 30 mg/Kg.; type: organism-based
Rattus norvegicus [4] = test: Antagonism of Diazepam anti-convulsive effects in rats treated with metrazole ip dose at 0.3 mg/kg, 5/6 rats affected; type: functional; details: route intraperitoneal
Rattus norvegicus [5] = test: Antagonism of Diazepam anti-convulsive effects in rats treated with metrazole ip dose at 1 mg/kg in rats, 1/6 rats affected; type: functional; details: route intraperitoneal
Rattus norvegicus [6] = test: Antagonism of Diazepam anti-convulsive effects in rats treated with metrazole ip dose at 10 mg/kg, 0/6 rats affected; type: functional; details: route intraperitoneal
Rattus norvegicus [7] = test: Antagonism of Diazepam anti-convulsive effects in rats treated with metrazole ip dose at 3mg/kg, 2/6 rats affected; type: functional
Rattus norvegicus [8] = test: Antagonism of Diazepam anti-convulsive effects in rats treated with metrazole ip dose at 30 mg/kg, 0/6 rats affected; type: functional; details: route intraperitoneal
Rattus norvegicus [9] = test: Antagonism of diazepam-induced rotarod deficit on ip dose in rats; type: functional
[10] = target: GABA-A receptor; anion channel; test: Displacement of [3H]diazepam from GABA-A Benzodiazepine receptor of rat forebrain
Rattus norvegicus [11] = test: Antagonism of Diazepam anti-convulsive effects in rats treated with metrazole ip dose at 0.3mg/kg, 6/6 rats affected; type: functional
Rattus norvegicus [12] = test: Antagonism of Diazepam anti-convulsive effects in rats treated with metrazole ip dose at 1 mg/kg, 2/6 rats affected; type: functional; details: route intraperitoneal
Rattus norvegicus [13] = test: Antagonism of diazepam-induced discriminative stimuli in rats by ip dose; type: functional
Rattus norvegicus [14] = species: Rattus norvegicus; test: Antagonism of diazepam-induced discriminative stimuli in rats by peroral dose; type: functional; details: po
Rattus norvegicus [15] = species: Rattus norvegicus; test: Antagonism of diazepam-induced rotarod deficit after peroral dose in rats; type: functional; details: po
Rattus norvegicus [16] = test: Antagonism of Diazepam anti-convulsive effects in rats treated with metrazole ip dose at 1 mg/kg, 3/6 rats affected; type: functional; details: route intraperitoneal
[17] = target: GABA-A receptor; anion channel; test: Displacement of [3H]flunitrazepam from GABA-A Benzodiazepine receptor of rat forebrain
Rattus norvegicus [18] = test: Antagonism of Diazepam anti-convulsive effects in rats treated with metrazole ip dose at 1 mg/kg, 5/6 rats affected; type: functional; details: route intraperitoneal
Rattus norvegicus [19] = test: Antagonism of Diazepam anti-convulsive effects in rats treated with metrazole ip dose at 20 mg/kg, 0/6 rats affected; type: functional; details: route intraperitoneal
Rattus norvegicus [20] = test: Antagonism of Diazepam anti-convulsive effects in rats treated with metrazole ip dose at 3mg/kg, 1/6 rats affected; type: functional
Rattus norvegicus [21] = species: Rattus norvegicus; test: Antagonism of diazepam-induced rotarod deficit on peroral dose in rats; type: functional; details: po
[22] = target: T1, GABA-A receptor; anion channel (Mus musculus); details: 30 mg/kg
Description: In vivo percentage inhibition of flunitrazepam binding to mouse fore brain at 30 mg/kg

Compound | IC50 [1] | IC50 [2] | inhibition [3] | other results
Oc1nc2ccc(Cl)cc2c2nc(C3CCCO3)nn12 (centres undefined) | > 100 nM | – | – | –
Oc1nc2ccc(Cl)cc2c2nc(-c3cccnc3)nn12 | – | 10 nM | 24% | –
Oc1nc2c(Cl)cc(Cl)cc2c2nc(-c3ccccc3)nn12 | – | 200 nM | 6% | –
COc1ccc(-c2nc3c4cc(Cl)ccc4nc(O)n3n2)cc1 | 3 nM | – | – | –
Oc1nc2ccc(Cl)cc2c2nc(-c3cccc(F)c3)nn12 | 4 nM | – | 31% | Antagonist effect (Rattus norvegicus [4]): 5; Antagonist effect (Rattus norvegicus [5]): 1; Antagonist effect (Rattus norvegicus [6]): 0; Antagonist effect (Rattus norvegicus [7]): 2; Antagonist effect (Rattus norvegicus [8]): 0; ED50 (Rattus norvegicus [9]): > 30 mg/kg
Oc1nc2ccc(Cl)cc2c2nc(Cc3ccccc3)nn12 | 100 nM | – | 0% | –
Oc1nc2ccc(Cl)cc2c2nc(-c3ccc(C(F)(F)F)cc3)nn12 | > 1000 nM | – | – | –
CN1CCCC(c2nc3c4cc(Cl)ccc4nc(O)n3n2)C1 (centres undefined) | > 1000 nM | – | – | –
Cc1ccc(-c2nc3c4cc(Cl)ccc4nc(O)n3n2)cc1 | 200 nM | – | 63% | –
Oc1nc2ccc(Cl)cc2c2nc(-c3ccccn3)nn12 | – | 100 nM | – | –
Oc1nc2ccccc2c2nc(-c3ccncc3)nn12 | – | – | 19% | –
Oc1nc2ccc(Cl)cc2c2nc(-c3cccs3)nn12 | 0.6 nM | – | 21% | –
Oc1nc2ccc(Cl)cc2c2nc(-c3ccc(F)cc3)nn12 | 20 nM | – | 52% | –
O=c1[nH]c2ccccc2c2nc(-c3ccncc3)nn12 | – | 200 nM | – | –
CCOc1nc2c3ccccc3nc(O)n2n1 | 2.5 nM | – | 0% | –
CN1C(=O)CN=C(c2ccccc2F)c2cc([N+](=O)[O-])ccc21 [FLUNITRAZEPAM] | – | – | – | IC50 [10]: 1.5 nM

Compound | IC50 [1] | IC50 [2] | inhibition [3] | other results
Oc1nc2ccc(Cl)cc2c2nc(-c3ccccc3F)nn12 | 0.4 nM | – | 76% | Antagonist effect (Rattus norvegicus [11]): 6; Antagonist effect (Rattus norvegicus [12]): 2; Antagonist effect (Rattus norvegicus [6]): 0; Antagonist effect (Rattus norvegicus [7]): 2; Antagonist effect (Rattus norvegicus [8]): 0; ED50 (Rattus norvegicus [13]): 2.99 mg/kg; ED50 (Rattus norvegicus [14]): 6.51 mg/kg; ED50 (Rattus norvegicus [9]): 6.92 mg/kg; ED50 (Rattus norvegicus [15]): 5.5 mg/kg
Oc1nc2ccc(Cl)cc2c2nc(-c3ccccc3)nn12 | 8 nM | – | 72% | Antagonist effect (Rattus norvegicus [11]): 6; Antagonist effect (Rattus norvegicus [16]): 3; Antagonist effect (Rattus norvegicus [6]): 0; Antagonist effect (Rattus norvegicus [7]): 2; Antagonist effect (Rattus norvegicus [8]): 0; ED50 (Rattus norvegicus [9]): 26 mg/kg; ED50 (Rattus norvegicus [15]): 2.8 mg/kg
COc1cc(-c2nc3c4cc(Cl)ccc4nc(O)n3n2)cc(OC)c1OC | > 1000 nM | – | – | –
Cn1c(=O)n2nc(C(F)(F)F)nc2c2ccccc21 | – | > 1000 nM | – | –
Oc1nc2ccccc2c2nc(-c3ccccc3)nn12 | – | 4 nM | 55% | –
O=C1C2C=Nc3ccccc3C2=NN1c1ccccc1 (centres undefined) [CGS-8216] | – | – | – | IC50 [10]: 0.3 nM; IC50 [17]: 4.4 nM; Antagonist effect (Rattus norvegicus [6]): 0; Antagonist effect (Rattus norvegicus [18]): 5; Antagonist effect (Rattus norvegicus [19]): 0; Antagonist effect (Rattus norvegicus [20]): 1; ED50 (Rattus norvegicus [14]): 1.61 mg/kg; ED50 (Rattus norvegicus [21]): 0.6 mg/kg; inhibition [22]: 90%
Cn1c(=O)n2nc(-c3cccnc3)nc2c2ccccc21 | – | > 10000 nM | – | –
Oc1nc2ccc(Cl)cc2c2nc(-c3ccco3)nn12 | 0.6 nM | – | 15% | –
Oc1nc2ccccc2c2nc(C(F)(F)F)nn12 | – | > 1000 nM | – | –
Oc1nc2ccccc2c2nc(-c3ccc(Cl)cc3)nn12 | – | > 10000 nM | – | –
OCc1nc2c3ccccc3nc(O)n2n1 | > 100 nM | – | 0% | –
Cn1c(=O)n2nc(-c3ccccc3)nc2c2ccccc21 | – | 350 nM | 55% | –
Oc1ccc(-c2nc3c4cc(Cl)ccc4nc(O)n3n2)cc1 | 0.3 nM | – | 0% | –
Oc1nc2ccccc2c2nc(-c3ccccc3F)nn12 | 0.4 nM | – | 41% | –
Oc1nc2ccc(Cl)cc2c2nc(-c3ccoc3)nn12 | 3.5 nM | – | – | –
Oc1nc2ccccc2c2nc(-c3cccnc3)nn12 | – | 130 nM | 48% | –
